Results taken from article PMC6879718, “Mycobacterial OtsA Structures Unveil Substrate Preference Mechanism and Allosteric Regulation by 2-Oxoglutarate and 2-Phosphoglycerate” (mBio, 2019).
“Also recorded” adds a separate entry of the source. Like-named read-outs stand apart in the source and are kept apart here.

Columns and labels:
Assay type in all cases: biochemical, Mycobacterium thermoresistibile
[1] = target: T1, M. thermoresistibile OtsA R213E (Mycolicibacterium thermoresistibile, UniProt G7CGT2, R213E); assay: Effect of allosteric regulators on OtsA activity (R213E); conditions: R213E, G6P and ADP-glucose both 0.3 mM
T1 sequence (G7CGT2 1-486 R213E): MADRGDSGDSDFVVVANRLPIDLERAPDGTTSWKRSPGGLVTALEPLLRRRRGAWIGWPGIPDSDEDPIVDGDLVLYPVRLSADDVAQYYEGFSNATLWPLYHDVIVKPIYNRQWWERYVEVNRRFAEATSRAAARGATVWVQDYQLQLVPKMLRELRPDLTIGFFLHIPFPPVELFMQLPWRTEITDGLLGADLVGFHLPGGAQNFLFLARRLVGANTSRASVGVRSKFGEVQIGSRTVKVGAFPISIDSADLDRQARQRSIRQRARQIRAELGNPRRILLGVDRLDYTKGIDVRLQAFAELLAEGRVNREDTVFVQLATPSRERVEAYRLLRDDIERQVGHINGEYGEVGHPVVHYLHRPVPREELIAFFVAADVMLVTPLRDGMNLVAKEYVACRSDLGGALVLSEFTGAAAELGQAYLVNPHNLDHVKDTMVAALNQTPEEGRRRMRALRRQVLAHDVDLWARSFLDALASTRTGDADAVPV
Method: (§1) . All reagents used were obtained from Sigma-Aldrich. The enzymatic reactions (200-μl reaction mixture) were performed at 37°C, and the reaction mixtures contained 50 mM Tris (pH 7.5), 200 mM NaCl, 10 mM MgCl2, 50 mM KCl, 0.3 mM NADH, 2.5 mM phosphoenolpyruvate (PEP), 10 units of pyruvate kinase-lactate dehydrogenase, 0.1 μM enzyme, and various concentrations of G6P and NDP-glucose to determine kinetic parameters.
(§2) […]. All experiments were performed in triplicate in a PHERAstar plate reader (BMG Labtech), and data were analyzed with Prism 5 (GraphPad Software).

[2] = target: T2, M. thermoresistibile OtsA wild type (Mycolicibacterium thermoresistibile, UniProt G7CGT2); assay: Effect of feedback inhibitors and allosteric regulators on OtsA activity (wild type)
[3] = target: T3, M. thermoresistibile OtsA R384E (Mycolicibacterium thermoresistibile, UniProt G7CGT2, R384E); assay: Effect of allosteric regulators on OtsA activity (R384E); conditions: R384E, G6P and ADP-glucose both 0.3 mM
T3 sequence (G7CGT2 1-486 R384E): T1 sequence (G7CGT2 1-486 R213E)
Method: as §1, §2

[4] = target: T2, M. thermoresistibile OtsA wild type; assay: OtsA kinetic parameters, continuous colorimetric coupled assay (wild type); conditions: ADP-glucose as the donor substrate
[5] = wild type, G6P and ADP-glucose both 0.3 mM

O=C(O)CCC(=O)C(=O)O [2OG, 2-oxoglutarate]
effect on OtsA activity [1]: abolished the strong response
nH, Hill coefficient (95% confidence interval) [1]: 0.26 (0.16–0.35)
IC50 ([1]; read-out: IC50 (95% confidence interval)): 73000 µM
nH, Hill coefficient (95% confidence interval) [2, 5]: 1.4 (1.1–1.7)
IC50 ([2]; wild type, G6P and ADP-glucose both 0.3 mM, read-out: IC50 (95% confidence interval)): 1800 µM
effect on OtsA activity [3]: strong activator
nH, Hill coefficient (95% confidence interval) [3]: 2.5 (1.4–3.5)
EC50 ([3]; read-out: EC50 (95% confidence interval), activation): 700 µM

O=C(O)C(CO)OP(=O)(O)O (centres unmarked) [2PG, 2-phosphoglyceric acid]
nH, Hill coefficient (95% confidence interval) [1]: 0.51 (0.40–0.63)
IC50 [2]: 2300 µM
nH, Hill coefficient (95% confidence interval) [2, 5]: 2.0 (1.4–2.7)
effect on OtsA activity [3]: no effect

O=S(=O)(O)CCNC1CCCCC1 [CHES, N-cyclohexyl-2-aminoethanesulfonic acid]
effect on OtsA activity [2, 5]: no discernible impact on OtsA activity

O=C(CO)[C@@H](O)[C@H](O)[C@H](O)COP(=O)(O)O [F6P]
effect on OtsA activity [2]: could not detect any effect; also recorded: no effect on the enzyme activity

O=C[C@H](O)[C@@H](O)[C@H](O)[C@H](O)COP(=O)(O)O [Glucose-6-phosphate, glucose-6-phosphate]
use as acceptor substrate [4]: the only acceptor

O=P(O)(O)OC[C@H]1O[C@H](O[C@H]2O[C@H](CO)[C@@H](O)[C@H](O)[C@H]2O)[C@H](O)[C@@H](O)[C@@H]1O [T6P, trehalose-6-phosphate]
effect on OtsA activity [2, 5]: very low sensitivity

OC[C@H]1O[C@H](O[C@H]2O[C@H](CO)[C@@H](O)[C@H](O)[C@H]2O)[C@H](O)[C@@H](O)[C@@H]1O [Trehalose]
IC50 [2]: ~24000 µM
